In ChEMBL document CHEMBL1201862, “PubChem BioAssay data set” (2004):
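Results reflect a 48-hour exposure of cells in 96-well plates to compound at five concentrations. Here, GI50 denotes the concentration required for 50% inhibition of growth.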 Activity calls are given as the source filed them. No stated cut-off is given here; in the data, active = GI50 up to about 1.1 µM and inactive = higher.

Columns and labels:
Experiment in all cases: NCI-60 cell line screen, 48 h
NCI/ADR-RES = test system: NCI/ADR-RES
DU-145 = test system: DU-145
OVCAR-5 = test system: OVCAR-5
SF-295 = test system: SF-295
SR = test system: SR
M14 = test system: M14
A498 = test system: A498
OVCAR-8 = test system: OVCAR-8
HOP-62 = test system: HOP-62
Malme-3M = test system: Malme-3M
U-251 = test system: U-251
MOLT-4 = test system: MOLT-4
HT-29 = test system: HT-29
SW-620 = test system: SW-620
MDA-MB-435 = test system: MDA-MB-435
MDA-MB-231 = test system: MDA-MB-231
SK-MEL-2 = test system: SK-MEL-2
IGROV-1 = test system: IGROV-1
786-0 = test system: 786-0
UACC-62 = test system: UACC-62
ACHN = test system: ACHN
NCI-H522 = test system: NCI-H522
SNB-19 = test system: SNB-19
SN12C = test system: SN12C
HCC 2998 = test system: HCC 2998
SF-539 = test system: SF-539
K562 = test system: K562
HL-60 = test system: HL-60
UO-31 = test system: UO-31
BT-549 = test system: BT-549
SF-268 = test system: SF-268
SK-MEL-5 = test system: SK-MEL-5
RPMI-8226 = test system: RPMI-8226
EKVX = test system: EKVX
NCI-H460 = test system: NCI-H460
A549 = test system: A549
COLO 205 = test system: COLO 205
KM12 = test system: KM12
UACC-257 = test system: UACC-257
MDA-N = test system: MDA-N
Hs-578T = test system: Hs-578T
HCT-116 = test system: HCT-116
TK-10 = test system: TK-10
NCI-H226 = test system: NCI-H226
NCI-H23 = test system: NCI-H23
CCRF-CEM = test system: CCRF-CEM
SNB-75 = test system: SNB-75
HOP-92 = test system: HOP-92
HCT-15 = test system: HCT-15
T47D = test system: T47D
SK-MEL-28 = test system: SK-MEL-28
RXF 393 = test system: RXF 393
OVCAR-4 = test system: OVCAR-4
PC-3 = test system: PC-3
OVCAR-3 = test system: OVCAR-3
MCF7 = test system: MCF7
SK-OV-3 = test system: SK-OV-3

With C=C(Br)C(C)(Br)CCC(Br)C(C)(C)Cl (configuration not stated) the GI50 (NCI/ADR-RES) was 23.7 µM (inactive), the GI50 (DU-145) was 21.5 µM (inactive) and the GI50 (OVCAR-5) was 18.8 µM (inactive). The GI50 (SF-295) was 16.9 µM (inactive), the GI50 (SR) was 3.5 µM (inactive) and the GI50 (M14) was 17.3 µM (inactive). The GI50 (A498) was 20.8 µM (inactive), the GI50 (OVCAR-8) was 17.8 µM (inactive) and the GI50 (HOP-62) was 23 µM (inactive). The GI50 (Malme-3M) was 20.1 µM (inactive), the GI50 (U-251) was 16.2 µM (inactive) and the GI50 (MOLT-4) was 2.54 µM (inactive). For the same molecule, the GI50 (HT-29) was 17.9 µM (inactive), the GI50 (SW-620) was 13 µM (inactive) and the GI50 (MDA-MB-435) was 19.4 µM (inactive). The GI50 (MDA-MB-231) was 17.8 µM (inactive), the GI50 (SK-MEL-2) was 25.7 µM (inactive) and the GI50 (IGROV-1) was 13.6 µM (inactive). The GI50 (786-0) was 17.8 µM (inactive), the GI50 (UACC-62) was 20.4 µM (inactive) and the GI50 (ACHN) was 19.1 µM (inactive). The GI50 (NCI-H522) was 6.62 µM (inactive), the GI50 (SNB-19) was 18.8 µM (inactive) and the GI50 (SN12C) was 20.2 µM (inactive). For the same molecule, the GI50 (HCC 2998) was 17.4 µM (inactive), the GI50 (SF-539) was 16.8 µM (inactive) and the GI50 (K562) was 10.2 µM (inactive). For the same molecule, the GI50 (HL-60) was 2.81 µM (inactive), the GI50 (UO-31) was 17.7 µM (inactive) and the GI50 (BT-549) was 23.8 µM (inactive). For the same molecule, the GI50 (SF-268) was 17.9 µM (inactive), the GI50 (SK-MEL-5) was 17.2 µM (inactive) and the GI50 (RPMI-8226) was 15.4 µM (inactive). The GI50 (EKVX) was 22.8 µM (inactive), the GI50 (NCI-H460) was 18.3 µM (inactive) and the GI50 (A549) was > 54.7 µM (inactive). The GI50 (COLO 205) was 18.5 µM (inactive), the GI50 (KM12) was 16.6 µM (inactive) and the GI50 (UACC-257) was 19.1 µM (inactive). The GI50 (MDA-N) was 19.2 µM (inactive), the GI50 (Hs-578T) was 26.4 µM (inactive) and the GI50 (HCT-116) was 11.7 µM (inactive). The GI50 (TK-10) was 18.2 µM (inactive), the GI50 (NCI-H226) was 31 µM (inactive) and the GI50 (NCI-H23) was 16.3 µM (inactive). The GI50 (CCRF-CEM) was 2.96 µM (inactive), the GI50 (SNB-75) was 16.5 µM (inactive) and the GI50 (HOP-92) was 14.6 µM (inactive). The GI50 (HCT-15) was 13 µM, the GI50 (T47D) was 20.5 µM (inactive) and the GI50 (SK-MEL-28) was 16.3 µM (inactive). For the same molecule, the GI50 (RXF 393) was 20 µM (inactive), the GI50 (OVCAR-4) was 18.9 µM (inactive) and the GI50 (PC-3) was 20.4 µM (inactive). For the same molecule, the GI50 (OVCAR-3) was 18.6 µM (inactive), the GI50 (MCF7) was 14.5 µM (inactive) and the GI50 (SK-OV-3) was 27.8 µM (inactive).
